ChEMBL document CHEMBL4831498, “Discovery of a potent MLL1 and WDR5 protein-protein interaction inhibitor with in vivo antitumor activity” (Eur J Med Chem, 2021)
Converted amounts (≈) assume the structure as drawn.

Experiment: Solubility of the compound at pH 7.4 by potentiometric titration method
Type: physicochemical
Conditions: buffer
For `Cc1c(F)c(N)cc(C(=O)Nc2cc(-n3cc(C(=O)NC4CCOCC4)nn3)ccc2N2CCN(C)CC2)c1Cl`, the solubility was 95.6 µM (≈ 54.6 µg/mL). Work on `Cc1c(F)c(N)cc(C(=O)Nc2cc(-c3ccc(NC(=O)CCCN)cc3)ccc2N2CCN(C)CC2)c1Cl` yielded a solubility of 199 µM (≈ 110 µg/mL). For `Cc1c(F)c(N)cc(C(=O)Nc2cc(-c3ccc(C(=O)N4CCOCC4)cc3)ccc2N2CCN(C)CC2)c1Cl`, the solubility was 48.2 µM (≈ 27.3 µg/mL). `Cc1c(F)c(N)cc(C(=O)Nc2cc(-n3cc(C(=O)NCCCN4CCOCC4)nn3)ccc2N2CCN(C)CC2)c1Cl` gave a solubility of 246 µM (≈ 151 µg/mL). For `Cc1c(F)c(N)cc(C(=O)Nc2cc(-n3cc(C(=O)O)nn3)ccc2N2CCN(C)CC2)c1Cl`, the solubility was 349 µM (≈ 170 µg/mL). Work on `Cc1c(F)c(N)cc(C(=O)Nc2cc(-n3cc(C(=O)NC4CCN(C)CC4)nn3)ccc2N2CCN(C)CC2)c1Cl` yielded a solubility of 343 µM (≈ 201 µg/mL). In the case of `COC(=O)c1cn(-c2ccc(N3CCN(C)CC3)c(NC(=O)c3cc(N)c(F)c(C)c3Cl)c2)nn1`, the solubility is reported as 41.5 µM (≈ 20.8 µg/mL). `Cc1c(F)c(N)cc(C(=O)Nc2cc(-c3ccc(NC(=O)C4CCOCC4)cc3)ccc2N2CCN(C)CC2)c1Cl` showed a solubility of 126 µM (≈ 73.3 µg/mL). Work on `COC(=O)c1ccc(-c2ccc(N3CCN(C)CC3)c(NC(=O)c3cc(N)c(F)c(C)c3Cl)c2)cc1` yielded a solubility of 3.7 µM (≈ 1.89 µg/mL). `Cc1c(F)c(N)cc(C(=O)Nc2cc(-c3ccc(NC(=O)C4CCN(C)CC4)cc3)ccc2N2CCN(C)CC2)c1Cl` gave a solubility of 3.9 µM (≈ 2.31 µg/mL). With `Cc1c(F)c(N)cc(C(=O)Nc2cc(-n3cc(C(=O)N4CCOCC4)nn3)ccc2N2CCN(C)CC2)c1Cl` the solubility was 361 µM (≈ 201 µg/mL). With `Cc1c(F)c(N)cc(C(=O)Nc2cc(-c3ccc(C(=O)O)cc3)ccc2N2CCN(C)CC2)c1Cl` the solubility was 40.5 µM (≈ 20.1 µg/mL).
